Tested on: subjects with major depressive disorder (MDD) who were inadequate responders to citalopram
Assay: SIS (Sheehan Irritability Scale), total and individual items, Phase 2b add-on trial
Type: in vivo, human
Parameters: SIS Adj. Mean change / SIS total score change Adjusted Mean / SIS Anger With Others change Adjusted Mean / SIS Anger With Self change Adjusted Mean / SIS Edginess change Adjusted Mean / SIS Irritability change Adjusted Mean / SIS Moodiness change Adjusted Mean / SIS Temper change Adjusted Mean: scale not given here
Method: In more detail, a multi-center double-blind, randomized, placebo-controlled, parallel group, flexible dose titration study of TC-5214 as adjunctive therapy in subjects with major depressive disorder (MDD) who were inadequate responders to citalopram was conducted in centers in the US and India. The study consisted of a screening period, baseline/washout period, open-label phase, double-blind phase, and a follow-up visit. Subject participation in the study could continue for up to 16 weeks of treatment. Following a washout period of up to 28 days for other antidepressants, subjects with MDD and a MADRS total score >/=28 and a Clinical Global Impression-Severity (CGI-S) score >/=4 were enrolled on Day 1 into an open-label citalopram-only phase of the study. This phase lasted 8 weeks, with citalopram (CIT) dose increased from a once-daily dose of 20 mg (Day 1 through Week 4) to 40 mg (Week 4 through Week 8). A total of 579 subjects entered the open-label citalopram phase. At Week 8, subjects who tolerated 40 mg CIT, but whose MADRS score was reduced <50% from baseline and no lower than 17, and CGI-S≧4, were considered inadequate responders. These subjects (n=270) were randomized in a double-blind fashion to receive either placebo or TC-5214-23 as add-on therapy to continued CIT. The double-blind phase of the study also lasted 8 weeks (Week 8 to Week 16). Study drug, TC-5214-23 or placebo, was started at 2 mg daily (1 mg twice per day [BID] dosing), added on to continuing CIT (40 mg PO qd). After 2 weeks of treatment, the dose of TC-5214 could be increased to 4 mg (2 mg BID) or continued unchanged, with up-titration based upon good tolerability and inadequate therapeutic response. After a further 2 weeks, the dose of TC-5214 could be increased again to 8 mg (4 mg BID) if judged appropriate by the investigator, based upon good tolerability and inadequate therapeutic response. At any time during the double-blind phase of the study, placebo or TC-5214-23 could be reduced to the previous dose level following the emergence of unacceptable adverse events (AEs). […] At this follow-up, any signs or symptoms of relapse were evaluated. If a subject was prematurely discontinued from the study between Week 8 and Week 16 for any reason, the investigator was to make every effort to perform all evaluations as per protocol, assuming the subject had reached the end of the double-blind add-on treatment phase. These evaluations were to be made as soon as possible and within 2 weeks of discontinuation. […] There was no meaningful difference in results as a function of age, gender, site, or smoking status. [table] With regard to efficacy endpoints, the following tables present efficacy used in the ITT (Intent-to-Treat) and PP (Per Protocol) populations unless otherwise specific. The primary inference was based upon Week 16 visit using the ITT population. Change from baseline was obtained by subtracting the baseline values from the individual on-treatment values. Change from Week 16 was obtained by subtracting the Week 16 values from the individual follow-up visit (Week 18/19) values. If either the baseline or Week 16 or on-treatment or follow-up value was missing, the change from baseline or Week 16 value was also set to missing. To account for missing data, the last observation carry forward (LOCF) method was used for the ITT and PP populations. Thus, the last available on-therapy observation for a subject, including the observation at premature discontinuation, was used to estimate subsequent missing data points. For efficacy, baseline data were collected at Week 8 in the double-blind augmentation phase electronic case report form pages. For SIS, the endpoint was the change from Week 8 (double-blind baseline) to Week 16 of the SIS. Changes were analyzed using ANCOVA. Each SIS item score was also analyzed using ANCOVA. […]

[1] = ITT population, Double Blind Week 16 LOCF, change from DB baseline
[2] = ITT population, Double Blind Week 18 LOCF (Follow-up), change from Week 16
[3] = PP population, Double Blind Week 16 LOCF, change from DB baseline
[4] = PP population, Double Blind Week 18 LOCF (Follow-up), change from Week 16

CN[C@@]1(C)[C@@H]2CC[C@@H](C2)C1(C)C [TC5214]
SIS Anger With Others change Adjusted Mean [1]: −2.56
SIS Anger With Others change Mean Difference between TC-5214 and Placebo [1]: 1.22
SIS Anger With Self change Adjusted Mean [1]: −2.29
SIS Anger With Self change Mean Difference between TC-5214 and Placebo [1]: 1.01
SIS Edginess change Adjusted Mean [1]: −2.55
SIS Edginess change Mean Difference between TC-5214 and Placebo [1]: 1.14
SIS Frustration change Adjusted Mean [1]: −2.74
SIS Frustration change Mean Difference between TC-5214 and Placebo [1]: 1.42
SIS Irritability change Adjusted Mean [1]: −2.74
SIS Irritability change Mean Difference between TC-5214 and Placebo [1]: 1.38
SIS Moodiness change Adjusted Mean [1]: −3.00
SIS Moodiness change Mean Difference between TC-5214 and Placebo [1]: 1.51
SIS Temper change Adjusted Mean [1]: −2.37
SIS Temper change Mean Difference between TC-5214 and Placebo [1]: 1.19
SIS Anger With Others change Adjusted Mean [2]: −0.07
SIS Anger With Others change Mean Difference between TC-5214 and Placebo [2]: 0.01
SIS Anger With Self change Adjusted Mean [2]: −0.07
SIS Anger With Self change Mean Difference between TC-5214 and Placebo [2]: 0.09
SIS Edginess change Adjusted Mean [2]: −0.24
SIS Edginess change Mean Difference between TC-5214 and Placebo [2]: 0.01
SIS Frustration change Adjusted Mean [2]: −0.09
SIS Frustration change Mean Difference between TC-5214 and Placebo [2]: −0.06
SIS Irritability change Adjusted Mean [2]: −0.14
SIS Irritability change Mean Difference between TC-5214 and Placebo [2]: −0.08
SIS Moodiness change Adjusted Mean [2]: −0.13
SIS Moodiness change Mean Difference between TC-5214 and Placebo [2]: −0.05
SIS Temper change Adjusted Mean [2]: −0.11
SIS Temper change Mean Difference between TC-5214 and Placebo [2]: −0.07
SIS Anger With Others change Adjusted Mean [3]: −2.77
SIS Anger With Others change Mean Difference between TC-5214 and Placebo [3]: 1.42
SIS Anger With Self change Adjusted Mean [3]: −2.54
SIS Anger With Self change Mean Difference between TC-5214 and Placebo [3]: 1.13
SIS Edginess change Adjusted Mean [3]: −2.81
SIS Edginess change Mean Difference between TC-5214 and Placebo [3]: 1.36
SIS Frustration change Adjusted Mean [3]: −3.00
SIS Frustration change Mean Difference between TC-5214 and Placebo [3]: 1.59
SIS Irritability change Adjusted Mean [3]: −3.00
SIS Irritability change Mean Difference between TC-5214 and Placebo [3]: 1.58
SIS Moodiness change Adjusted Mean [3]: −3.34
SIS Moodiness change Mean Difference between TC-5214 and Placebo [3]: 1.71
SIS Temper change Adjusted Mean [3]: −2.55
SIS Temper change Mean Difference between TC-5214 and Placebo [3]: 1.36
SIS Anger With Others change Adjusted Mean [4]: −0.10
SIS Anger With Others change Mean Difference between TC-5214 and Placebo [4]: 0.03
SIS Anger With Self change Adjusted Mean [4]: −0.09
SIS Anger With Self change Mean Difference between TC-5214 and Placebo [4]: 0.11
SIS Edginess change Adjusted Mean [4]: −0.27
SIS Edginess change Mean Difference between TC-5214 and Placebo [4]: 0.05
SIS Frustration change Adjusted Mean [4]: −0.09
SIS Frustration change Mean Difference between TC-5214 and Placebo [4]: −0.04
SIS Irritability change Adjusted Mean [4]: −0.14
SIS Irritability change Mean Difference between TC-5214 and Placebo [4]: −0.07
SIS Moodiness change Adjusted Mean [4]: −0.13
SIS Moodiness change Mean Difference between TC-5214 and Placebo [4]: −0.01
SIS Temper change Adjusted Mean [4]: −0.14
SIS Temper change Mean Difference between TC-5214 and Placebo [4]: −0.00

Reference: patent US20120190752A1, “EXO-S-MECAMYLAMINE METHOD, USE, AND COMPOUND FOR TREATMENT” (Targacept Inc., priority 2009, published 2012)
